The values that follow come from US20260184710A1, “CASITAS B-LINEAGE LYMPHOMA PROTOONCOGENE B (CBL-B) DEGRADING COMPOUNDS AND ASSOCIATED METHODS OF USE” (Arvinas Operations, Inc., priority 2022, published 2026).

For test [1], the target named is T1, Cbl-b (Homo sapiens, UniProt Q13191).
T1 construct: Cbl-b-HiBit KI Jurkat Cells were purchased from Promega; host or cells: Cbl-b-HiBiT knock-in Jurkat cells
As to the kind of experiment: Cbl-b Degradation Method A (FACS, anti-Cbl-b antibody staining). The test is classed as cell-based. Conditions: Cbl-b-HiBit KI Jurkat Cells, incubated at least 20 hours; for DC50: half maximal degradation, read-out: Cbl-b Degredation Method A IC50; for Dmax: Jurkat, maximum degradation observed, read-out: Cbl-b Degredation Method A Dmax (%). The procedure, abridged: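 Readout is flow cytometry of fixed, permeabilized cells immunostained for Cbl-b (primary 1:200, AF488 secondary). Cells were Cbl-b-HiBit knock-in Jurkat, exposed to compound ≥20 h at 37 °C; half-maximal degradation concentration (DC50) and maximal degradation (Dmax) calculated relative to control.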
A general note: With HiBiT, luminescence reflects the tagged protein that the partner subunit can reach.

Test [2] addresses T1, Cbl-b. Briefly: Cbl-b Degradation Method B (Nano-Glo HiBiT lytic detection). The test is classed as cell-based. Conditions: Cbl-b-HiBit KI Jurkat Cells, incubated at least 6-24 hours; for DC50: half maximal degradation, read-out: Cbl-b Degredation Method B IC50; for Dmax: maximum degradation observed, read-out: Cbl-b Degredation Method B Dmax (%). In a few lines: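 An 11-point, 3-fold compound dilution was applied for 6-24 hours to Jurkat cells carrying HiBiT-tagged endogenous Cbl-b. Lytic HiBiT luminescence quantified residual protein. Outputs are DC50 and Dmax relative to DMSO control.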

Broadly, the Dmax is the greatest extent of degradation seen.

The structures appear in SMILES notation.

T1 sequence (Q13191 whole entry): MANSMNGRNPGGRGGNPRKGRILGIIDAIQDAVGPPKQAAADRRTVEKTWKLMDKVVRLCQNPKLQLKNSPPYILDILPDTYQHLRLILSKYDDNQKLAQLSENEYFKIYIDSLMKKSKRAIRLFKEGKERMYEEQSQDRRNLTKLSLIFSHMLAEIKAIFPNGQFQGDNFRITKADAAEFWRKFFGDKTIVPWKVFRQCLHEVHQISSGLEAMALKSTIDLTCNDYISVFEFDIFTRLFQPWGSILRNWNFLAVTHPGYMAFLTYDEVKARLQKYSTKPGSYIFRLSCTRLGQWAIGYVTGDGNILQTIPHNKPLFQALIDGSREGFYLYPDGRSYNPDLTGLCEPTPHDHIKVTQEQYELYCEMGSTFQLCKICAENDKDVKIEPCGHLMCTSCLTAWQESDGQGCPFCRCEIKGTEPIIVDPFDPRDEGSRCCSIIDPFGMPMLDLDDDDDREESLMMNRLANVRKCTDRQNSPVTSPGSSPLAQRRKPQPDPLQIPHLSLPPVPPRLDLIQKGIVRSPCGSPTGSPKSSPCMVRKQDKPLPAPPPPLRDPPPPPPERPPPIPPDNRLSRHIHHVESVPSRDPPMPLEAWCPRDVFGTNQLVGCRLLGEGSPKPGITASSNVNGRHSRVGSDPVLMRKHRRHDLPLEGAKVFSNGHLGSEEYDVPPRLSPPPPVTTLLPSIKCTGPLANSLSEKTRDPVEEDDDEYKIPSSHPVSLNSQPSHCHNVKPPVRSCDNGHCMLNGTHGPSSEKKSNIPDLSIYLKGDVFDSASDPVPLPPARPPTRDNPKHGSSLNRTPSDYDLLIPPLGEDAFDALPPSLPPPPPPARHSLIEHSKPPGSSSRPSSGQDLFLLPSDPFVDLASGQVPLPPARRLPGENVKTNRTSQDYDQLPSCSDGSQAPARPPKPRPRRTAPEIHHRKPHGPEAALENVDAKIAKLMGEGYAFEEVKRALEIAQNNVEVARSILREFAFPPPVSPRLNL

Consider `Cn1cnnc1CC1(c2cccc(N3Cc4c(cc(CN5CCC[C@H](CN6CCC(CN7CC8(C7)CN(c7ccc9c(c7)C(=O)N(C7CCC(=O)NC7=O)C9=O)C8)CC6)C5)cc4C(F)(F)F)C3=O)c2)COC1` (stereo partly drawn) [Example 114, 2-(2,6-dioxopiperidin-3-yl)-5-{6-[(1-{[(3R)-1-{[2-(3-{3-[(4-methyl-4H-1,2,4-triazol-3-yl)methyl]oxetan-3-yl}phenyl)-3-oxo-7-(trifluoromethyl)-2,3-dihydro-1H-isoindol-5-yl]methyl}piperidin-3-yl]methyl}piperidin-4-yl)methyl]-2,6-diazaspiro[3.3]heptan-2-yl}-2,3-dihydro-1H-isoindole-1,3-dione], for which, at Cbl-b [1], the DC50 lay in the range of 0.005 to 0.05 µM and the Dmax is below 35%. Further, at Cbl-b [2], the DC50 lay within 0.005 to 0.05 µM and the Dmax was below 35%.
Turning to `Cn1cnnc1CC1(c2cccc(N3Cc4c(cc(N5CC6(CCN(CC7CCN(c8ccc9c(c8)C(=O)N(C8CCC(=O)NC8=O)C9=O)CC7)CC6)C5)cc4C(F)(F)F)C3=O)c2)COC1` (stereo not shown) [Example 115, 2-(2,6-dioxopiperidin-3-yl)-5-[4-({2-[2-(3-{3-[(4-methyl-4H-1,2,4-triazol-3-yl)methyl]oxetan-3-yl}phenyl)-3-oxo-7-(trifluoromethyl)-2,3-dihydro-1H-isoindol-5-yl]-2,7-diazaspiro[3.5]nonan-7-yl}methyl)piperidin-1-yl]-2,3-dihydro-1H-isoindole-1,3-dione], on Cbl-b [1], the DC50 fell in the range of 0.005 to 0.05 µM and the Dmax is 35 to 70%. In addition, on Cbl-b [2], the DC50 is 0.005 to 0.05 µM and the Dmax fell in the range of 35 to 70%.
As for `Cn1cnnc1CC1(c2cccc(N3Cc4c(cc(N5CC6(CCN(c7cc8c(cc7F)C(=O)N(C7CCC(=O)NC7=O)C8=O)CC6)C5)cc4C(F)(F)F)C3=O)c2)COC1` (stereo not shown) [Example 116, 2-(2,6-dioxopiperidin-3-yl)-5-fluoro-6-{2-[2-(3-{3-[(4-methyl-4H-1,2,4-triazol-3-yl)methyl]oxetan-3-yl}phenyl)-3-oxo-7-(trifluoromethyl)-2,3-dihydro-1H-isoindol-5-yl]-2,7-diazaspiro[3.5]nonan-7-yl}-2,3-dihydro-1H-isoindole-1,3-dione], the DC50 on Cbl-b [1] and on Cbl-b [2] was above 0.5 µM in each case.
Consider `Cn1cnnc1CC1(c2cccc(N3Cc4c(cc(N5CC6(CCN(CC7CCN(c8ccc9c(c8)CN(C8CCC(=O)NC8=O)C9=O)CC7)CC6)C5)cc4C(F)(F)F)C3=O)c2)COC1` (stereo not shown) [Example 117, 3-{5-[4-({2-[2-(3-{3-[(4-methyl-4H-1,2,4-triazol-3-yl)methyl]oxetan-3-yl}phenyl)-3-oxo-7-(trifluoromethyl)-2,3-dihydro-1H-isoindol-5-yl]-2,7-diazaspiro[3.5]nonan-7-yl}methyl)piperidin-1-yl]-1-oxo-2,3-dihydro-1H-isoindol-2-yl}piperidine-2,6-dione], for which, on Cbl-b [1], the DC50 is below 0.005 µM and the Dmax fell in the range of 35 to 70%. Besides, on Cbl-b [2], the DC50 is below 0.005 µM and the Dmax is 35 to 70%.
Consider `Cn1cnnc1CC1(c2cccc(N3Cc4c(cc(N5CCC(CC6CCN(c7cc8c(cc7F)C(=O)N(C7CCC(=O)NC7=O)C8=O)CC6)CC5)cc4C(F)(F)F)C3=O)c2)COC1` (stereo not shown) [Example 118, 2-(2,6-dioxopiperidin-3-yl)-5-fluoro-6-[4-({1-[2-(3-{3-[(4-methyl-4H-1,2,4-triazol-3-yl)methyl]oxetan-3-yl}phenyl)-3-oxo-7-(trifluoromethyl)-2,3-dihydro-1H-isoindol-5-yl]piperidin-4-yl}methyl)piperidin-1-yl]-2,3-dihydro-1H-isoindole-1,3-dione], for which the DC50 at Cbl-b [1] and on Cbl-b [2] was above 0.5 µM throughout.
For the molecule `Cn1cnnc1CC1(c2cccc(N3Cc4c(cc(N5CC6(CCN(CC7CCN(c8cccc9c8CN(C8CCC(=O)NC8=O)C9=O)CC7)CC6)C5)cc4C(F)(F)F)C3=O)c2)COC1` (stereo not shown) [Example 119, 3-{4-[4-({2-[2-(3-{3-[(4-methyl-4H-1,2,4-triazol-3-yl)methyl]oxetan-3-yl}phenyl)-3-oxo-7-(trifluoromethyl)-2,3-dihydro-1H-isoindol-5-yl]-2,7-diazaspiro[3.5]nonan-7-yl}methyl)piperidin-1-yl]-1-oxo-2,3-dihydro-1H-isoindol-2-yl}piperidine-2,6-dione], on Cbl-b [1], the DC50 fell in the range of 0.005 to 0.05 µM and the Dmax was below 35%. On Cbl-b [2], the DC50 is below 0.005 µM and the Dmax is below 35%.
Take `Cn1cnnc1CC1(c2cccc(N3Cc4c(cc(N5CC(C6CN(c7ccc8c(c7)C(=O)N(C7CCC(=O)NC7=O)C8=O)C6)C5)cc4C(F)(F)F)C3=O)c2)COC1` (stereo not shown) [Example 121, 2-(2,6-dioxopiperidin-3-yl)-5-{1′-[2-(3-{3-[(4-methyl-4H-1,2,4-triazol-3-yl)methyl]oxetan-3-yl}phenyl)-3-oxo-7-(trifluoromethyl)-2,3-dihydro-1H-isoindol-5-yl]-[3,3′-biazetidin]-1-yl}-2,3-dihydro-1H-isoindole-1,3-dione]: the DC50 is 0.005 to 0.05 µM on Cbl-b [1] and above 0.5 µM at Cbl-b [2].
Regarding `Cn1cnnc1CC1(c2cccc(N3Cc4c(cc(N5CCN(CC6CCN(c7ccc8c(c7)C(=O)N(C7CCC(=O)NC7=O)C8=O)CC6)CC5)cc4C(F)(F)F)C3=O)c2)COC1` (stereo not shown) [Example 122, 2-(2,6-dioxopiperidin-3-yl)-5-[4-({4-[2-(3-{3-[(4-methyl-4H-1,2,4-triazol-3-yl)methyl]oxetan-3-yl}phenyl)-3-oxo-7-(trifluoromethyl)-2,3-dihydro-1H-isoindol-5-yl]piperazin-1-yl}methyl)piperidin-1-yl]-2,3-dihydro-1H-isoindole-1,3-dione], the DC50 was 0.05 to 0.5 µM on Cbl-b [1] and above 0.5 µM on Cbl-b [2].
For the molecule `Cn1cnnc1CC1(c2cccc(N3Cc4c(cc(N5CC6(CN(c7ccc8c(c7)C(=O)N(C7CCC(=O)NC7=O)C8=O)C6)C5)cc4C(F)(F)F)C3=O)c2)COC1` (stereo not shown) [Example 123, 2-(2,6-dioxopiperidin-3-yl)-5-{6-[2-(3-{3-[(4-methyl-4H-1,2,4-triazol-3-yl)methyl]oxetan-3-yl}phenyl)-3-oxo-7-(trifluoromethyl)-2,3-dihydro-1H-isoindol-5-yl]-2,6-diazaspiro[3.3]heptan-2-yl}-2,3-dihydro-1H-isoindole-1,3-dione], the DC50 was 0.05 to 0.5 µM at Cbl-b [1] and above 0.5 µM at Cbl-b [2]. For the same molecule, the Dmax at Cbl-b [1] was 35 to 70%.
With `Cn1cnnc1CC1(c2cccc(N3Cc4c(cc(N5CCC(C6CCN(c7ccc8c(c7)C(=O)N(C7CCC(=O)NC7=O)C8=O)CC6)CC5)cc4C(F)(F)F)C3=O)c2)COC1` (stereo not shown) [Example 124, 2-(2,6-dioxopiperidin-3-yl)-5-{1′-[2-(3-{3-[(4-methyl-4H-1,2,4-triazol-3-yl)methyl]oxetan-3-yl}phenyl)-3-oxo-7-(trifluoromethyl)-2,3-dihydro-1H-isoindol-5-yl]-[4,4′-bipiperidin]-1-yl}-2,3-dihydro-1H-isoindole-1,3-dione], the DC50 on Cbl-b [1] and on Cbl-b [2] was above 0.5 µM throughout.
For `Cn1cnnc1CC1(c2cccc(N3Cc4c(cc(N5CCC6(CCN(c7ccc8c(c7)C(=O)N(C7CCC(=O)NC7=O)C8=O)CC6)CC5)cc4C(F)(F)F)C3=O)c2)COC1` (stereo not shown) [Example 125, 2-(2,6-dioxopiperidin-3-yl)-5-{9-[2-(3-{3-[(4-methyl-4H-1,2,4-triazol-3-yl)methyl]oxetan-3-yl}phenyl)-3-oxo-7-(trifluoromethyl)-2,3-dihydro-1H-isoindol-5-yl]-3,9-diazaspiro[5.5]undecan-3-yl}-2,3-dihydro-1H-isoindole-1,3-dione], the DC50 at Cbl-b [1] and on Cbl-b [2] was above 0.5 µM throughout.
Take `Cn1cnnc1CC1(c2cccc(N3Cc4c(cc(N5CC6(CCN(c7ccc8c(c7)C(=O)N(C7CCC(=O)NC7=O)C8=O)C6)C5)cc4C(F)(F)F)C3=O)c2)COC1` (stereo not shown) [Example 126, 2-(2,6-dioxopiperidin-3-yl)-5-{2-[2-(3-{3-[(4-methyl-4H-1,2,4-triazol-3-yl)methyl]oxetan-3-yl}phenyl)-3-oxo-7-(trifluoromethyl)-2,3-dihydro-1H-isoindol-5-yl]-2,6-diazaspiro[3.4]octan-6-yl}-2,3-dihydro-1H-isoindole-1,3-dione]: the DC50 on Cbl-b [1] and at Cbl-b [2] was above 0.5 µM in each case.
Regarding `Cn1cnnc1CC1(c2cccc(N3Cc4c(cc(N5CCC6(C5)CN(c5ccc7c(c5)C(=O)N(C5CCC(=O)NC5=O)C7=O)C6)cc4C(F)(F)F)C3=O)c2)COC1` (stereo not shown) [Example 127, 2-(2,6-dioxopiperidin-3-yl)-5-{6-[2-(3-{3-[(4-methyl-4H-1,2,4-triazol-3-yl)methyl]oxetan-3-yl}phenyl)-3-oxo-7-(trifluoromethyl)-2,3-dihydro-1H-isoindol-5-yl]-2,6-diazaspiro[3.4]octan-2-yl}-2,3-dihydro-1H-isoindole-1,3-dione], the DC50 on Cbl-b [1] and on Cbl-b [2] was above 0.5 µM each time.
On to `Cn1cnnc1CC1(c2cccc(N3Cc4c(cc(N5CCC(C6CN(c7ccc8c(c7)C(=O)N(C7CCC(=O)NC7=O)C8=O)C6)CC5)cc4C(F)(F)F)C3=O)c2)COC1` (stereo not shown) [Example 128, 2-(2,6-dioxopiperidin-3-yl)-5-(3-{1-[2-(3-{3-[(4-methyl-4H-1,2,4-triazol-3-yl)methyl]oxetan-3-yl}phenyl)-3-oxo-7-(trifluoromethyl)-2,3-dihydro-1H-isoindol-5-yl]piperidin-4-yl}azetidin-1-yl)-2,3-dihydro-1H-isoindole-1,3-dione], for which the DC50 on Cbl-b [1] and at Cbl-b [2] was above 0.5 µM each time.
